Source: patent US20240189289A1, “INHIBITORS OF EPHB3 SIGNALING” (The Brigham and Women`s Hospital, Inc., priority 2021, published 2024)

How the values were obtained:
astrocytes = assay: Cytotoxicity (LDH release) and apoptosis (caspase-3/7) assay; format: cell-based
Description: Cytotoxicity and apoptosis assay. Compound cytotoxicity was inferred by quantifying Lactate Deshidrogenase (LDH) release to the cells supernatants after 24 h using the CytoTox 96© Non-Radioactive Cytotoxicity Assay, (Promega #G1780) following by manufacturer's protocol. […] Briefly cells were washed with 0.5% BSA, 2 mM EDTAin 1×PBS and incubated with surface antibodies and a live/dead cell marker on ice for 30 minutes. After, cells were washed and following staining for Caspase-3/7 according the manufacturer's instructions (Invitrogen, #C10427).

NOD EAE = assay: Chronic progressive EAE in NOD mice (MOG35-55); format: in vivo, mouse
Description: EAE. […] EAE was assessed as follows: 0, no signs of disease; 1, loss of tone in the tail; 2, hind limb paresis; 3, hind limb paralysis; 4, tetraplegia; 5, moribund.
To further validate the potential of EphB3 kinase inhibition for the therapeutic modulation of CNS inflammation and neurodegeneration, a study was performed using non-obese diabetic (NOD) mouse model of chronic progressive EAE induced by immunization with MOG35-55, which recapitulated aspects of secondary progressive MS, including the progressive and irreversible accumulation of neurologic disability.

## O=C(Nc1ccccc1Cl)c1cnc2ccc(C3CCNCC3)cn12 [A38]
astrocytes; FIG. 1B
  cytotoxicity (LDH release): did not induce cytotoxicity
astrocytes; FIG. 7A
  apoptosis (caspase-3/7 activation): did not induce cytotoxicity or apoptosis
NOD EAE; administration during the progressive phase
  NOD EAE clinical scores: ameliorated NOD EAE, as indicated by the reduced clinical scores
NOD EAE; progressive phase of NOD EAE
  astrocyte and microglial expression of transcriptional modules associated with CNS inflammation and neurodegeneration: suppressed
  peripheral T-cell response: no changes in the peripheral T-cell response were detected
  recruitment of pro-inflammatory monocytes to the CNS: decreased recruitment
